Laboratory results from US20240415845A1, “Compositions of Iboga Alkaloids and Methods of Treatment” (priority 2022, published 2024).

Tests used:
[1] = test system: special operations veterans with combat and/or blast exposure; test: MRI-based predicted brain age (machine learning model); format: in vivo, human; conditions: for brain age estimate: baseline 40.89 years; for Brain age, Cohen's d / Brain age, Mean Difference: N 24
From the text: In another aspect, a method for slowing or reversing brain aging in a subject is provided. In an embodiment, the subject is a person a healthy individual or is a person with TBI or with TBI and PTSD or a person at risk of one or both of TBI and PTSD. The method comprises treating the subject with ibogaine, as described herein. Neuroimaging data can be used to predict chronological age in healthy individuals, using machine learning. Neuroimaging-derived age predictions have been explored in the context of different brain diseases (Cole, et al., NeuroImage, 163:115-124 (2017): Cole, et al., Trends in Neurosciences, 40(12):681 (2017))). By training models on healthy individuals, brain-based predictions of age can be made in independent clinical samples. If ‘brain-predicted age’ is greater than an individual's chronological age, this is thought to reflect some aberrant accumulation of age-related changes to the brain (Id.). […] A predictive model of normal ageing defined using machine learning in healthy individuals, based on magnetic resonance imaging-derived estimates of gray matter and white matter (Id.) was applied to the MRI images from the subjects enrolled in the study of Example 1. […] There was a significant reversal of brain age from baseline to one month after treatment. The mean decrease in brain age was 1.3 years (corrected p=0.03).
At baseline, the brain age estimate for the 24 subjects was 40.89 years. […] The average decrease in brain age from baseline one month after treatment was 1.4 years.

[2] = test system: male veterans with a history of TBI; test: Pseudo-continuous arterial spin labeling (pcASL) MRI of cerebral blood flow; format: in vivo, human; conditions: baseline, first post-treatment scan and one month post-treatment; paired t-test; 18 subjects
Experimental: Arterial spin labeling (ASL) MR was used to measure cerebral blood flow in some of the subjects of the subjects enrolled in the study of Example 1. As described in Example 3, pseudo-continuous ASL (pcASL) was performed on the subject at baseline, about 1 week after treatment, and one-month after treatment. […] A first metric of interest was change in net quantity (mL/100 g tissue/min) of blood entering different regions of the brain. Images of the left posterior orbital gyrus, left anterior insula, left and right cerebral white matter at baseline and 1-week post treatment (images not shown) were analyzed and compared. […] A paired t-test across 3 time points—baseline (pre-treatment), 1 week post-treatment, and 1 month post-treatment—was employed.
Arterial spin labeling (ASL) MRW was used to measure cerebral blood flow.
A first metric of interest was change in net quantity (mL/100 g tissue/min) of blood entering different regions of the brain. Images of the left posterior orbital gyrus, left anterior insula, left and right cerebral white matter at baseline and 1-2 days post treatment (images not shown) were analyzed and compared.
A paired t-test across 3 time points-baseline (pre-treatment), 1-2 days post-treatment, and one month post-treatment-was employed.

[3] = in vivo; cited from earlier work
[4] = orally administered to humans; possibly longer in poor CYP2D6 metabolizers; cited from earlier work
[5] = contrast 1 wk post − 1 mo. post
[6] = contrast immediate post (~1 wk) − baseline
[7] = one month after treatment, 24 subjects

With CCC1CC2CC3c4[nH]c5ccc(OC)cc5c4CCN(C2)C13 (stereo not shown) [ibogaine, Ibogaine] the “Brain age, contrast Estimate” value ([1]; Baseline & 1 wk. vs 1 mo., weights .5-.5-1) was 1.220 years, the “Brain age, contrast Estimate” value ([1]; Baseline vs. 1 wk and 1 mo., weights 1-.5-.5) was 0.892 years and the brain age estimate ([1]; about one week after treatment, 24 subjects) was 40.52 years. For the same molecule, the “mean decrease in predicted brain age” value ([1]; baseline to one month after treatment, corrected p=0.03 (FIG. 19A)) was 1.3 years, the “Brain age, Cohen's d” value ([1]; contrast 1-mo. post − baseline) was −0.6137 and the “Brain age, Mean Difference” value ([1]; contrast 1-mo. post − baseline) was −1.408 Years. The “Brain age, Cohen's d” value [1, 5] was −0.4729, the “Brain age, Mean Difference” value [1, 5] was −1.031 Years and the “Brain age, Cohen's d” value [1, 6] was −0.2114. For the same molecule, the “Brain age, Mean Difference” value [1, 6] was −0.3764 Years, the “average decrease in brain age from baseline” value [1, 7] was 1.4 years and the brain age estimate [1, 7] was 39.48 years. The “estimated brain age compared to accelerated intermittent theta burst stimulation (aiTBS)” value ([1]; one-month post treatment (FIG. 19D)) was “reducing in estimated brain age”, the “changes in absolute cerebral blood flow” value [2] was “No significant changes” and the “people who may suffer from cardiac arrest when treated” value [3] was “Approximately 1 in 300”. For the same molecule, the half-life [4] was “about 7.5 hours”.
